Like-named read-outs stand apart in the source and are kept apart here.
Experiments:
Type in all cases: in vivo
[1] = Plasma and brain concentration in mice (co-administration with AEDs); details: MES-T; for concentration at 30 min: mouse, brain, intraperitoneal, CBZ 7 mg/kg i.p.
Procedure: Blood was collected intracardially by heart […] pipettes supplemented with heparin-Na (ratiopharm, Ulm, Germany; 10μl of 5.000 I.U./ml) and separated by centrifuging (1500xg for 10 min) at 6-8°C. The plasma was stored at -20°C in plastic tubes. After blood sample collection, rats were decapitated and brains were quickly dissected. After removing the adherent blood by tissue paper and cutting off the cerebellum, the samples were fresh frozen using liquid nitrogen. Brain tissue was stored at -80°C and delivered to the different laboratories on dry ice. For mice (groups with n = 6), a similar procedure was used for the preparation of plasma and brain samples. In experiments in which AFC was co-administered with carbamazepine or ethosuximide, drug concentrations in plasma and brain were estimated to detect potential pharmacokinetic interactions. Samples from experiments with AFC were analysed at the Lead Discovery Center (Dortmund, Germany). Briefly, AFC, carbamazepine and ethosuximide were extracted from plasma and homogenized brain by protein precipitation using acetonitrile. Resulting filtrates were analysed by liquid chromatography tandem-mass spectrometry (LC-MS/MS) using a Prominence UFLC system (Shimadzu, Duisburg, Germany) coupled to a QTrap 5500 instrument (ABSciex, Darmstadt, Germany). The compounds were separated on a Zorbax Eclipse Plus C18 column (Agilent Technologies, Santa Clara, CA, USA) with an acetonitrile/water gradient containing 0.1% formic acid as solvent. Chromatographic conditions and mass spectrometer parameters were optimized for each analyte. Plasma and brain concentrations of the compounds were calculated by means of a standard curve. Data were analysed using SigmaPlot (vers. 12.0, Systat Software, Erkrath, Germany) and SPSS (IBM SPSS Statistics 20, […], Germany), respectively. Results are expressed as mean ± SEM. […] In the MES-T, the current intensity inducing tonic hindlimb extensions in 50% of the mice (CC50 values with confidence limits for 95% probability) and the statistical significance was calculated using Probit analysis (SPSS). […] In the PTZ-T, the number of animals in the group with clonic seizures and the latency time were analysed using Fisher's exact probability test and the Mann-Whitney rank sum test, respectively. For multiple comparisons of the latency time a one-way ANOVA with the Holm-Sidak post hoc test was used. The influence of AFC on the plasma and brain concentrations of the antiepileptic drugs was statistical compared using the same procedure. In the PTZ-kindling model, the mean seizure stage within a group was calculated in relation to the number of PTZ-injections. Statistical comparison between vehicle- and compound-treated groups in this model was performed with two-way repeated measures ANOVA, followed by the Holm-Sidak post hoc test. The mean number of PTZ-injections needed to produce the first generalized seizure (≥ stage 3 convulsions) in the vehicle- versus compound-treated groups was statistically compared using a Mann-Whitney rank sum test. In fully kindled rats, the calculated mean seizure stage within a group after vehicle- and compound-treatment were compared using a paired t-test. P < 0.05 was the accepted minimum level of significance.

[2] = tested on: electroshock-induced tonic (hindlimb extension) seizures; assay: Maximal electroshock seizure threshold test (MES-T); details: mice; carbamazepine 7 mg/kg i.p. alone, 30 min before
Procedure: The stimulus train was applied via ear-clip electrodes (sinusoidal pulses 4-14 mA, 50 Hz, 0.2 s duration) by means of a constant current stimulator (rodent-shocker type 221; Hugo Sachs Elektronik, March-Hugstetten, Germany). […] Groups of 20 mice were used. Control groups, which received the corresponding vehicle, were tested together with the compound-treated groups on the same experimental day. Current intensity-effect curves were obtained on the basis of the number of animals responding with the endpoint at the corresponding current value. The results are calculated as convulsive current fifty (CC50) values (current intensity in mA, necessary to produce tonic hindlimb extension in 50% of the mice tested) including the confidence limits for 95% probability. […] Chemicals, Toronto, Canada) was slowly added. The pH was adjusted with 1N NaOH (similar amount of NaOH as HCl), all with continuous stirring. […] The drug solutions or suspensions were prepared immediately before use; all doses refer to the salts. Animals in the control group received equivalent volumes of the vehicle (in mice always 10 ml/kg, in rats 1 ml/kg [JNJ], 3 ml/kg [AFC] or 4 ml/kg [BBG, TIIAS], depending on the solubility of the different compounds). Doses and peak time effects were selected on the basis of effective doses from corresponding in vivo studies in the literature: BBG (e.g.), tanshinone IIA (e.g.) and from manufacturer's experimental data: AFC, JNJ (see, [80]). Data were analysed using SigmaPlot (vers. 12.0, Systat Software, Erkrath, Germany) and SPSS (IBM SPSS Statistics 20, […], Germany), respectively. Results are expressed as mean ± SEM. […] In the PTZ-T, the number of animals in the group with clonic seizures and the latency time were analysed using Fisher's exact probability test and the Mann-Whitney rank sum test, respectively. […] In the PTZ-kindling model, the mean seizure stage within a group was calculated in relation to the number of PTZ-injections. […] In fully kindled rats, the calculated mean seizure stage within a group after vehicle- and compound-treatment were compared using a paired t-test. […]

[3] = tested on: PTZ-induced seizures in fully PTZ-kindled rats; assay: PTZ-induced seizures in fully kindled rats; details: fully kindled rats; 20 mg/kg i.p.; pre-drug (vehicle) value 4.1
Source text: Results were expressed as mean seizure stages of a tested group in which the seizure behaviour after vehicle treatment (vehicle seizure stage) and after compound treatment (compound seizure stage), examined 3-4 days later, was matched. For comparison, the effectiveness of two antiepileptic drugs (carbamazepine and valproate) was also investigated. […] Chemicals, Toronto, Canada) was slowly added. The pH was adjusted with 1N NaOH (similar amount of NaOH as HCl), all with continuous stirring. […] The drug solutions or suspensions were prepared immediately before use; all doses refer to the salts. Animals in the control group received equivalent volumes of the vehicle (in mice always 10 ml/kg, in rats 1 ml/kg [JNJ], 3 ml/kg [AFC] or 4 ml/kg [BBG, TIIAS], depending on the solubility of the different compounds). Doses and peak time effects were selected on the basis of effective doses from corresponding in vivo studies in the literature: BBG (e.g.), tanshinone IIA (e.g.) and from manufacturer's experimental data: AFC, JNJ (see, [80]). Data were analysed using SigmaPlot (vers. 12.0, Systat Software, Erkrath, Germany) and SPSS (IBM SPSS Statistics 20, […], Germany), respectively. Results are expressed as mean ± SEM. […] In the MES-T, the current intensity inducing tonic hindlimb extensions in 50% of the mice (CC50 values with confidence limits for 95% probability) and the statistical significance was calculated using Probit analysis (SPSS). […] In the PTZ-T, the number of animals in the group with clonic seizures and the latency time were analysed using Fisher's exact probability test and the Mann-Whitney rank sum test, respectively. For multiple comparisons of the latency time a one-way ANOVA with the Holm-Sidak post hoc test was used. The influence of AFC on the plasma and brain concentrations of the antiepileptic drugs was statistical compared using the same procedure. In the PTZ-kindling model, the mean seizure stage within a group was calculated in relation to the number of PTZ-injections. Statistical comparison between vehicle- and compound-treated groups in this model was performed with two-way repeated measures ANOVA, followed by the Holm-Sidak post hoc test. The mean number of PTZ-injections needed to produce the first generalized seizure (≥ stage 3 convulsions) in the vehicle- versus compound-treated groups was statistically compared using a Mann-Whitney rank sum test. In fully kindled rats, the calculated mean seizure stage within a group after vehicle- and compound-treatment were compared using a paired t-test. P < 0.05 was the accepted minimum level of significance.

NC(=O)N1c2ccccc2C=Cc2ccccc21 [carbamazepine]
plasma concentrations of CBZ on co-application of AFC ([1]; AFC 25 or 50 mg/kg s.c.): not significantly modulated
concentration at 30 min ([1]; 7 mg/kg, n = 6, read-out: brain concentration of CBZ alone): 22.8 ± 1.5 µM
concentration at 30 min ([1]; n = 6, significantly lowered, read-out: brain concentration of CBZ with AFC 25 mg/kg s.c.): 16.2 ± 0.6 µM
concentration at 30 min ([1]; n = 6, significantly lowered, read-out: brain concentration of CBZ with AFC 50 mg/kg s.c.): 17.2 ± 1.7 µM
increase of the electroconvulsive threshold [2]: about 50%
mean seizure stage, post-drug [3]: 2.3
